The test system of the assay is primary rat hepatocytes. Description: TGF-β1-induced apoptosis, percentage of apoptotic cells. It is filed as cell-based. Particulars: 1 nM TGF-β1 36 hours; 100 μM compound pre-treatment; FIG. 8B. How it is done: Primary rat hepatocytes were isolated from male rats (100-150 grams) by collagenase perfusion (as described by Solá S, et al., 2003, Journal of Biological Chemistry 278: 48831-48838)). Briefly, rats were anesthetized with phenobarbital sodium (100 mg/kg body weight) injected into the peritoneal cavity. After administration of heparin (200 units/kg body weight) in the tail vein, the animal's abdomen was opened and the portal vein exposed and cannulated. The liver was then perfused at 37° C. in situ with a calcium-free Hanks' Balanced Salt Solution (HBSS) for about 10 minutes, and then with 0.05% collagenase type IV in calcium-present HBSS for another 10 minutes. […] Cell viability was determined by trypan blue exclusion and was typically 80-85%. […] Fluorescence was visualized using an Axioskop fluorescence microscope (Carl Zeiss GmbH). Blue-fluorescent nuclei were scored blindly and categorized according to the condensation and staining characteristics of chromatin. […] Five random microscopic fields per sample containing approximately 150 nuclei were counted, and mean values expressed as the percentage of apoptotic nuclei. […] Results are expressed as means±SEM of at least three experiments. *p<0.01 from control; § p<0.05 and †p<0.01 from TGF-β1.

“7,8-[^2H]-3α,7α-dihydroxy-5β-cholan-24-oic acid/7-[^2H]-3α,7α-dihydroxy-5β-cholan-24-oic acid [Compound 5]”: the “reduction of the percentage of apoptotic cells” value is given as ~40%.
In the case of `C[C@H](CCC(=O)O)[C@H]1CC[C@H]2[C@@H]3[C@@H](O)C[C@@H]4C[C@H](O)CC[C@]4(C)[C@H]3CC[C@]12C` [UDCA, Ursodeoxycholic acid, reference compound] it was ~40%.

Values taken from patent publication US10144758B2, “Deuterated bile acids” (Metselex, Inc., priority 2013, dated 2018).
